Columns and labels:
[1] = Plasma concentration in rat at 10 mg/kg, po measured at 2 hrs; type: ADME, organism-based; parameters: dose 10 mg/kg, route oral
[2] = target: Vasopressin V1a receptor (Homo sapiens) (UniProt P37288); assay: Inhibition of vasopressin V1a receptor (unknown origin) at 2 ug/mL relative to control
[3] = target: Mitogen-activated protein kinase 1 (Homo sapiens, UniProt P28482); assay: Inhibition of human ERK2
Cytochrome P450 2C9 = Cytochrome P450 2C9 (Homo sapiens, UniProt P11712); assay: Inhibition of CYP2C9 in human liver microsomes using tolbutamide as substrate by LC-MS/MS analysis; type: ADME, Microsome
[4] = Plasma concentration in rat at 10 mg/kg, po measured at 6 hrs; type: ADME, organism-based; parameters: dose 10 mg/kg, route oral
[5] = target: 5-hydroxytryptamine receptor 1A (Homo sapiens) (UniProt P08908); assay: Inhibition of 5HT-1A receptor (unknown origin) at 2 ug/mL relative to control
[6] = target: Muscarinic acetylcholine receptor M4 (Homo sapiens) (UniProt P08173); assay: Inhibition of muscarinic M4 receptor (unknown origin) at 2 ug/mL relative to control
[7] = target: Insulin-like growth factor 1 receptor (Homo sapiens, UniProt P08069); assay: Inhibition of human IGF1R
[8] = Tmax in rat at 10 mg/kg, po; type: ADME, organism-based; parameters: dose 10 mg/kg, route oral; details: in vivo
[9] = target: Neuropeptide Y receptor type 5 (Homo sapiens) (UniProt Q15761); assay: Inhibition of NPYY5 receptor (unknown origin) at 2 ug/mL relative to control
[10] = target: Rho-associated protein kinase 2 (Homo sapiens, UniProt O75116); assay: Inhibition of human ROCK2
[11] = target: Muscarinic acetylcholine receptor M1 (Homo sapiens) (UniProt P11229); assay: Inhibition of muscarinic M1 receptor (unknown origin) at 2 ug/mL relative to control
[12] = target: Alpha-1B adrenergic receptor (Homo sapiens) (UniProt P35368); assay: Inhibition of adrenergic alpha-1B receptor (unknown origin) at 1 ug/mL relative to control
hERG (KCNH2) = hERG (KCNH2) (Homo sapiens, UniProt Q12809); assay: Inhibition of human ERG expressed in mouse L929 cells at 1 uM by IonWorks assay relative to control; type: cell-based; details: mouse L929 cells expressing human ERG
Cytochrome P450 3A4 = Cytochrome P450 3A4 (Homo sapiens, UniProt P08684); assay: Time-dependent inhibition of CYP3A4 in human liver microsomes using 6beta-hydroxylase as substrate incubated for 30 mins prior to substrate addition measured after 30 mins by LC-MS/MS analysis; type: ADME, Microsome
[13] = target: Cannabinoid receptor 1 (Homo sapiens) (UniProt P21554); assay: Inhibition of CB1 receptor (unknown origin) at 20 ug/mL relative to control
[14] = target: Alpha-2B adrenergic receptor (Homo sapiens) (UniProt P18089); assay: Inhibition of adrenergic alpha-2B receptor (unknown origin) at 1 ug/mL relative to control
Chain of Alpha-2B adrenergic receptor (Homo sapiens) (P18089 whole entry): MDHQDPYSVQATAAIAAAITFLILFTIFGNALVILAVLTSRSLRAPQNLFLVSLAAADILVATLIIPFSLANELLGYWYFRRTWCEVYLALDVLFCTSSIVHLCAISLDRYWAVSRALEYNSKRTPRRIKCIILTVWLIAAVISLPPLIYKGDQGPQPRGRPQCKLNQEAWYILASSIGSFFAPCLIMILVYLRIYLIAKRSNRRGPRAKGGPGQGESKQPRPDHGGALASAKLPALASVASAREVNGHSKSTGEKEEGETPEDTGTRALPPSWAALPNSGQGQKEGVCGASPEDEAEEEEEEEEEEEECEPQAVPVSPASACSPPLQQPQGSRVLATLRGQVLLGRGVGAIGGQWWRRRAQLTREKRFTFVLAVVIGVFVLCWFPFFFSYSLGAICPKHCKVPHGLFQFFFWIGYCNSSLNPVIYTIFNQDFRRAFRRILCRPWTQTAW

Chain of Vasopressin V1a receptor (Homo sapiens) (P37288 whole entry, looked up): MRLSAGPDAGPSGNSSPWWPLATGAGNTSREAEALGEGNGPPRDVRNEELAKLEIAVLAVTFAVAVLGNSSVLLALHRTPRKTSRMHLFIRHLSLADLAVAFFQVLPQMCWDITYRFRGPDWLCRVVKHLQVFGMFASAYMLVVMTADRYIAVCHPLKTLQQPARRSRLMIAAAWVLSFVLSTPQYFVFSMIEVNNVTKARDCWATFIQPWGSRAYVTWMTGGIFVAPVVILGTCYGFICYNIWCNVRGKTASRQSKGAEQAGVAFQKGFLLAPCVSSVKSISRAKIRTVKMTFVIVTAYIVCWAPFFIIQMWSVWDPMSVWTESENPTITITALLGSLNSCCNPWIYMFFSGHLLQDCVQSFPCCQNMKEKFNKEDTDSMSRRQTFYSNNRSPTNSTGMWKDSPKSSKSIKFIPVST
Chain of Cytochrome P450 2C9 (P11712 whole entry): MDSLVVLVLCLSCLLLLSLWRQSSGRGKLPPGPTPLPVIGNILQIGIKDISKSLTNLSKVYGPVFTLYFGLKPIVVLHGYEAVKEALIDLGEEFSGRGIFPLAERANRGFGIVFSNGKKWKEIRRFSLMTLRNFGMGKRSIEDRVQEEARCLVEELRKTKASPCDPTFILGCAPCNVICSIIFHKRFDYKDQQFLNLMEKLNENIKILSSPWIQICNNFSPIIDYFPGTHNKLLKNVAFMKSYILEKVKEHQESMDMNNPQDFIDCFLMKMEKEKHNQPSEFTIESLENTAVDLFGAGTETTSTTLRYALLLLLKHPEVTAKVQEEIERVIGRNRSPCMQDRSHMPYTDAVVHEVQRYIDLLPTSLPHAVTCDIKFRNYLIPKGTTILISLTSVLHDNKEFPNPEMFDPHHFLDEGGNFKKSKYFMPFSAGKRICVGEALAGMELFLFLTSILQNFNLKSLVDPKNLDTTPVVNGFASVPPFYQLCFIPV
Chain of Muscarinic acetylcholine receptor M4 (Homo sapiens) (P08173 whole entry): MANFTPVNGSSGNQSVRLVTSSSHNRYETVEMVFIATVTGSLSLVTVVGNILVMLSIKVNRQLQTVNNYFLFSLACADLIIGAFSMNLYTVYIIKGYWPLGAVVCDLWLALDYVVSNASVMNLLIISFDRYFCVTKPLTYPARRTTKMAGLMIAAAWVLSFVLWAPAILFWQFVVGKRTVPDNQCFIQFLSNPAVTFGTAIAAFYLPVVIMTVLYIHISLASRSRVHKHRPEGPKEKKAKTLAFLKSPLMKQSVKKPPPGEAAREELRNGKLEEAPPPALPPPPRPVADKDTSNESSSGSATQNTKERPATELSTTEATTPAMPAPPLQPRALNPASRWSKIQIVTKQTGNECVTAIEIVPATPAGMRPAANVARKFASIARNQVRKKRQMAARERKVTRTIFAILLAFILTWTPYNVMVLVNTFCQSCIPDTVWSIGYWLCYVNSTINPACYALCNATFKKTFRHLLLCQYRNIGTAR
Chain of Cannabinoid receptor 1 (Homo sapiens) (P21554 whole entry): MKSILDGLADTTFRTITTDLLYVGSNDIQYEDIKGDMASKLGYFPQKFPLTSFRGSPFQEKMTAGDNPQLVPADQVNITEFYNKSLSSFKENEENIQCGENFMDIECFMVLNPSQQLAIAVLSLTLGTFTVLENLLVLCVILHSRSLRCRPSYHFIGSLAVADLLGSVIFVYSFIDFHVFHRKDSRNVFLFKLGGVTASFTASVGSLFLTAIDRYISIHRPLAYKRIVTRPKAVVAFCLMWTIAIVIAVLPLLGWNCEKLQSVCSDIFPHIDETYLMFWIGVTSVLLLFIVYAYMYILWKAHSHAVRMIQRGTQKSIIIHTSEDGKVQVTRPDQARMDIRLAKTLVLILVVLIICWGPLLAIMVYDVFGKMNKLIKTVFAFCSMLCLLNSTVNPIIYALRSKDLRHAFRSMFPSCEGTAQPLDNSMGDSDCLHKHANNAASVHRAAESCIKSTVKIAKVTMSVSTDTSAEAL
Chain of Neuropeptide Y receptor type 5 (Homo sapiens) (Q15761 whole entry): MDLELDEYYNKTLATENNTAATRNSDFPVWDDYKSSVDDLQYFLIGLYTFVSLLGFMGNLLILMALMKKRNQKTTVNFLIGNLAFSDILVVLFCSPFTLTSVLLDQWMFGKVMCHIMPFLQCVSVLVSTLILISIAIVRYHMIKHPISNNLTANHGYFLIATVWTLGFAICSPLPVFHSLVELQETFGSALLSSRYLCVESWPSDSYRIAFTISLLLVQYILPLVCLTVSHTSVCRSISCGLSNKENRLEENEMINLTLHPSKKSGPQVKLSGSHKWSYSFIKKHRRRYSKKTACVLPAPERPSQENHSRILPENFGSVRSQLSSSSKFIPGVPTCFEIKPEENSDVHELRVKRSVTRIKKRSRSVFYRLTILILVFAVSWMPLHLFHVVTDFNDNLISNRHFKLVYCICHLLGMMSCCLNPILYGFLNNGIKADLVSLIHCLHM
Chain of Insulin-like growth factor 1 receptor (P08069 31-736 limits assumed): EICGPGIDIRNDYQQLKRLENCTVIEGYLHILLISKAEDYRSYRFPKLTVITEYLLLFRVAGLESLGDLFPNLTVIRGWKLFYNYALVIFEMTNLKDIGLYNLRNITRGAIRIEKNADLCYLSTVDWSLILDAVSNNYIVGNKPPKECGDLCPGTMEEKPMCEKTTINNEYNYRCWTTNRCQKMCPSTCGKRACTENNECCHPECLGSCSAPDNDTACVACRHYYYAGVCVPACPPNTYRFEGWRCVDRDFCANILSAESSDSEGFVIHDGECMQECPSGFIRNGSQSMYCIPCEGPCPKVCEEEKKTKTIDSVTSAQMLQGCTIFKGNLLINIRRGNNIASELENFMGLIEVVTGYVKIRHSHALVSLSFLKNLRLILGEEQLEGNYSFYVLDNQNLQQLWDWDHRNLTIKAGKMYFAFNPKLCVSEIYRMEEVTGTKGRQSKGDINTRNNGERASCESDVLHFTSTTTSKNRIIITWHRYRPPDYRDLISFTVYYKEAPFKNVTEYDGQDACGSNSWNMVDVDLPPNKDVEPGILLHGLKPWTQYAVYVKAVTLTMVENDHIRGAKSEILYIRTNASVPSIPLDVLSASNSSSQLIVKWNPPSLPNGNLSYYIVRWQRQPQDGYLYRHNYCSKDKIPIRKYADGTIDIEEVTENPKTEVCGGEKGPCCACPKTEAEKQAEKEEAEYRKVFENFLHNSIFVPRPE
Chain of Insulin-like growth factor 1 receptor (P08069 741-1367 limits assumed): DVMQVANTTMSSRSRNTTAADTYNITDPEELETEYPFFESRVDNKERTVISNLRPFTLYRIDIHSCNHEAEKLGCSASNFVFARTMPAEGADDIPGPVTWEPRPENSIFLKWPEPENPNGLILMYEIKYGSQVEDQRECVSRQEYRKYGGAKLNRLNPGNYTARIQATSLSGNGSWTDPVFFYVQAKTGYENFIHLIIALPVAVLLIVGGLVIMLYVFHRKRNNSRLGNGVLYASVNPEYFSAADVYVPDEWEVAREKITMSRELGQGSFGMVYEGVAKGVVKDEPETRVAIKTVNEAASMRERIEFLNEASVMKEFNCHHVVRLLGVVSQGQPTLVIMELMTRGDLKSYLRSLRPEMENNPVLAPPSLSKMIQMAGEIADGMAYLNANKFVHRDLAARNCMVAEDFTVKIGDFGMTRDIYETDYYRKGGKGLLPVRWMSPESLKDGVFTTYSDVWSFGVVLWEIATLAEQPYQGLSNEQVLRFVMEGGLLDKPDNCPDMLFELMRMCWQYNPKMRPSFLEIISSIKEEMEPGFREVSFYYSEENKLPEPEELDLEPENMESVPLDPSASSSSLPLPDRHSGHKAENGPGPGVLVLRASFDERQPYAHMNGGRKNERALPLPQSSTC
Chain of Mitogen-activated protein kinase 1 (P28482 whole entry): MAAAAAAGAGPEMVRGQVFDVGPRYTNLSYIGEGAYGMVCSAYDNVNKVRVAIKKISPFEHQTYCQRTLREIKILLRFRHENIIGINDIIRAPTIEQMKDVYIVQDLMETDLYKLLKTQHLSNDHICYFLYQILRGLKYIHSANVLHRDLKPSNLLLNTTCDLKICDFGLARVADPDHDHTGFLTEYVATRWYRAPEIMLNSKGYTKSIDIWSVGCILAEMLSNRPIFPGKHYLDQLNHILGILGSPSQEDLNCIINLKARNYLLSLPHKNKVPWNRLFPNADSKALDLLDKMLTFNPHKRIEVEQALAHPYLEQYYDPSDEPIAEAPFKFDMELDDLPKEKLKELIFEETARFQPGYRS
Chain of Muscarinic acetylcholine receptor M1 (Homo sapiens) (P11229 whole entry): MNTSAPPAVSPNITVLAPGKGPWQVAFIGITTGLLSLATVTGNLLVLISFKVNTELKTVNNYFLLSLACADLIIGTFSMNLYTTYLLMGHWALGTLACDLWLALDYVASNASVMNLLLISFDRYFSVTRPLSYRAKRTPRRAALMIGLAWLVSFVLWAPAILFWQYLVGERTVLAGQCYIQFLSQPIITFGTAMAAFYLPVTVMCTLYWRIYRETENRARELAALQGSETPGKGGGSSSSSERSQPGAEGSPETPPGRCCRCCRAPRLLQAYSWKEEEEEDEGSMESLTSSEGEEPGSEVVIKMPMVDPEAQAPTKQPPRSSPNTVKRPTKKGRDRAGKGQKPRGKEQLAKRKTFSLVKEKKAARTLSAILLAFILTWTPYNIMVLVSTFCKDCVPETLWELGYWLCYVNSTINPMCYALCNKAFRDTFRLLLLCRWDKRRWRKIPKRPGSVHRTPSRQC

- concentration at 2 h [1]: 150 ng/mL
- inhibition [2]: 10.9%
- IC50 [3]: 20 µM
- IC50 (Cytochrome P450 2C9): > 30 µM
- concentration at 6 h [4]: 252 ng/mL
- inhibition [5]: 12.8%
- inhibition [6]: 14.1%
- IC50 [7]: 30 µM
- Tmax [8]: 6 h
- inhibition [9]: 13.2%
- IC50 [10]: 6.8 µM
- inhibition [11]: 43.8%
- inhibition [12]: 21.8%
- IC50 (Cytochrome P450 3A4): > 30 µM
- inhibition [13]: 22.6%
- inhibition [14]: 4.2%
SMILES: COc1ccc2c(c1)C(=O)N(c1nc(C(=O)Nc3cnccc3N3CCNCC3)cs1)C2
- inhibition at 1 µM (hERG (KCNH2)): 4%
